According to BigSolDB 2.1:

NNC(=O)c1ccncc1
solubility (mole fraction)
Conditions	283.15 K	288.15 K	293.15 K	298.15 K	303.15 K	308.15 K	313.15 K	318.15 K	323.15 K
in DMF	0.023	0.027	0.031	0.035	0.0412	0.0458	0.0511	0.0567	0.0649
in acetonitrile	0.000725	0.000912	0.00109	0.00141	0.00169	0.002	0.00241	0.00288	0.00331
in ethanol	0.00266	0.00318	0.00384	0.00465	0.00549	0.00646	0.00754	0.0087	0.00996
in ethyl acetate	0.000976	0.0012	0.00136	0.0016	0.00195	0.00234	0.00279	0.00331	0.00374
in isopropanol	0.0021	0.00253	0.00314	0.00373	0.00453	0.00558	0.00651	0.00804	0.00949
in methanol	0.00574	0.0067	0.00797	0.00961	0.0112	0.0131	0.0151	0.0179	0.0211
in n-propanol	0.00219	0.00264	0.00329	0.00419	0.00495	0.0059	0.00705	0.0084	0.00983
in water	0.0106	0.0134	0.0159	0.0198	0.024	0.0296	0.0354	0.0421	0.0517
